Measurements reported in patent US7037901B1, “Radiosensitization by indolocarbazole derivatives” (priority 2001, dated 2006).

Key:
[1] = test system: human breast cancer MCF-7 cells; experiment: Clonogenic survival assay with radiation (radiosensitization) in MCF-7 cells; type: cell-based; conditions: for ER (SER per footnote c, sensitization enhancement ratio): 2 μg/ml 1 h before radiation, at 10% survival; for Dq (width of the shoulder of the radiation survival curve): SHMT model fit, FIG. 3B; for Induction of RS / enhancement of radiocytotoxicity: one-hour preincubation with 2 μg/ml, FIG. 2; for RT dose (Gy) at 10% survival: pre-treated 2 μg/ml 1 h, rinsed, then radiation; for Enhancement of radiocytotoxicity: 10 μg/ml (data not shown)
Experimental: (§1) Clonogenic Survival Assay. […] 18–24 h prior to experimental studies.
(§2) Colonies consisting of >50 cells were counted.
(§3) Irradiation of Cells. Drug-treated and control cells in medium were irradiated using a cobalt-60 source (Eldorado 8; Theratronics, Canada) at a dose rate of 105 cGy/min.
(§4) Analysis of Survival Curves. Survival curves were corrected for cytotoxicity induced by drug alone treatment. Sensitization enhancement ratios (SERs) and standard deviations for survival curves were determined at 10% cell survival. Each SER was calculated by dividing the radiation dose to induce 10% cell survival in the absence of radiosensitizer with the radiation dose to induce 10% cell survival in the presence of radiosensitizer.
The updated programs developed by Dr. N. Albright (San Rafael, Calif.) (Albright, N., Radiat. Res., 112:331–340 (1987)) were used for curve fitting for MCF-7 cells with the linear quadratic (LQ) and the single hit multi-target (SHMT) models. Both the LQ and SHMT models gave qualitatively good fits. The fit with the SHMT model was used for the present study.

[2] = test system: human MCF-7 and Chinese hamster DC3F cells; experiment: RS activity summary (MCF-7 and DC3F cells); type: cell-based; parameters: key: +: possess RS activity; −: possess no RS activity; conditions: MCF-7 (FIG. 2) and DC3F cells (Table 4)
Experimental: as §1, §2, §3, §4

[3] = biological target: T1, covalent topoisomerase-DNA cross-links in CHO cells (Cricetulus griseus, UniProt Q07050, S505G); experiment: In vivo K+-SDS co-precipitation assay for protein-DNA cross-links; type: cell-based, Chinese hamster; parameters: key to Protein-DNA cross-links: +++: high activity; ++: modest activity; +: low activity; conditions: 30-min drug treatment, based on FIG. 5
T1 construct: endogenous in cells; host or cells: Chinese hamster ovary CHO cells
Excerpt: In vivo K^+-SDS co-precipitation assay for protein-DNA cross-links. The K^+-SDS co-precipitation assay as described previously (Chen, Y. N., et al., J. Biol. Chem., 265:10073–10080 (1990)) was used to quantify the formation of covalent topoisomerase-DNA cross-links in drug-treated cells.
Briefly, the DNA in logarithmic growing Chinese hamster CHO cells was overnight-labeled in medium containing 1 μCi/ml of [mehtyl-^3H] thymidine. These cells were then trypsinized and diluted in fresh medium before aliquoted into a 24-well plate. After overnight incubation, the labeled cells were treated with various concentrations of drugs for 30 min, washed with phosphate-buffered saline once, and lysed by adding 1 ml of prewarmed lysis solution (1.25% SDS, 5 mM EDTA, 0.4 mg/ml salmon sperm DNA, pH 8.0, 65° C.).
Following shearing chromosomal DNA by passing the lysate through a 19-gauge needle, the sample was transferred to a tube containing 0.25 ml of 325 mM KCl. The sample was vortexed vigorously for 10 s, cooled on ice for 10 min and centrifuged at 3000 rpm for 10 min at 4° C.
The pellet was then resuspended in 1 ml of a wash solution (100 mM KCl, 1 mM EDTA, 0.1 mg/ml salmon sperm DNA, 10 mM Tris-HCl, pH 8.0) and placed at 65° C. for 10 min with occasional mixing. The sample was again cooled on ice for 10 min and centrifuged at 3000 rpm for 10 min at 4° C. After the pellet from each sample was washed again, the pellet was finally resuspended in 0.2 ml of 65° C. water and added to 5 ml of scintillation fluid to determine radioactive counts.
The background precipitable counts were obtained by treating the lysate with proteinase K (400 μg/ml) at 65° C. for 2 h. Data are arithmetic means (±SD) of three determinations, and the background counts have been subtracted.

[4] = test system: human breast cancer MCF-7 cells; experiment: Clonogenic survival assay, drug alone (cytotoxicity) in MCF-7 cells; type: cell-based; conditions: 2 μg/ml for 1 h, read graphically from FIG. 2
Experimental: as §1, §2

T1 sequence (Q07050 2-767 S505G): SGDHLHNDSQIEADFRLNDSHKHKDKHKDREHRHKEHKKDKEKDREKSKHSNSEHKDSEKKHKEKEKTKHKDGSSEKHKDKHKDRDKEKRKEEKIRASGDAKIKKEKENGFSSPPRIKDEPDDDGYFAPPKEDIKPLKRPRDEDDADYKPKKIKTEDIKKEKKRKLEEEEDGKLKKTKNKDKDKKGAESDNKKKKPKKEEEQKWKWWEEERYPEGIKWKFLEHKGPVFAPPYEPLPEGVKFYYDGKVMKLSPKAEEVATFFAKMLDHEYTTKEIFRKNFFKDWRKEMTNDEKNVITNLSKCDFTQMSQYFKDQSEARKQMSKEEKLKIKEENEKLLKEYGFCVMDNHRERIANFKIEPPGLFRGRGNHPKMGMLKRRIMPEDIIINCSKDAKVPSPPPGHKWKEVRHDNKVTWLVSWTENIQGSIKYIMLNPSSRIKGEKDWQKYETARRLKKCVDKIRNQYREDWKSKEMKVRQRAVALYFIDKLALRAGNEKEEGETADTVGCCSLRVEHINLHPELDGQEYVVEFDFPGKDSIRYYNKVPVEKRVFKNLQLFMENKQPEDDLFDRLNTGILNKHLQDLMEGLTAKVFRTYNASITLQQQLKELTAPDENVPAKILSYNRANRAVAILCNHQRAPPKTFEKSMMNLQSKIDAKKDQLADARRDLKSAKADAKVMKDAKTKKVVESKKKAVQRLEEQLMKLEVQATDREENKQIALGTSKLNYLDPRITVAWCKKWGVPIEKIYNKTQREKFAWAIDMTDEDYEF

| Compound | ER (SER per footnote c, sensitization enhancement ratio) [1] | Dq (width of the shoulder of the radiation survival curve) [1] | Induction of RS / enhancement of radiocytotoxicity [1] | RT dose (Gy) at 10% survival [1] | RS (radiosensitization activity) [2] | Protein-DNA cross-links [3] | Percent of cell survival without RT [4] | Enhancement of radiocytotoxicity [1] |
| --- | --- | --- | --- | --- | --- | --- | --- | --- |
| CO[C@H]1[C@H](O)[C@@H](O)[C@H](n2c3c(Cl)cccc3c3c4c(c5c6cccc(Cl)c6[nH]c5c32)C(=O)NC4=O)O[C@@H]1CO [F1, rebeccamycin] | 1.9 | drastically reduced | induction of RS was observed | 3.8 Gy | + | ++ | 94 ± 8% |  |
| COC1C(CO)OC(n2c3ccccc3c3c4c(c5c6ccccc6[nH]c5c32)C(=O)OC4=O)C(O)C1O (stereo not drawn) [F5] | 1.7 | drastically reduced | induction of RS was observed | 4.2 Gy | + | + | 98 ± 2% |  |
| COC1C(CO)OC(n2c3ccccc3c3c4c(c5c6ccccc6[nH]c5c32)C(=O)N(O)C4=O)C(O)C1O (stereo not drawn) [F7] | 1.7 | drastically reduced | induction of RS was observed | 4.2 Gy | + | ++ | 98 ± 2% |  |
| COC1C(CO)OC(n2c3c(Cl)cccc3c3c4c(c5c6cccc(Cl)c6[nH]c5c32)C(=O)N(C)C4=O)C(O)C1O (stereo not drawn) [F43] | 1.0 |  | do not enhance radiocytotoxicity | 7.0 Gy | − | + | 95 ± 5% | do not enhance radiocytotoxicity |
| COC1C(CO)OC(n2c3ccccc3c3c4c(c5c6ccccc6[nH]c5c32)C(=O)N(C)C4=O)C(O)C1O (stereo not drawn) [F44] | 1.0 |  | do not enhance radiocytotoxicity | 6.9 Gy | − | ++ | 100 ± 2% | do not enhance radiocytotoxicity |
| COC1C(CO)OC(n2c3ccccc3c3c4c(c5c6ccccc6[nH]c5c32)C(=O)NC4=O)C(O)C1O (stereo not drawn) [F71] | 1.0 |  | do not enhance radiocytotoxicity | 7.2 Gy | − | +++ | 85 ± 10% | do not enhance radiocytotoxicity |
